According to patent US20170050934A1 (priority 2014, published 2017):

Experiments:
[1] = system: rice blast fungus (Magnaporthe grisea); experiment: microbe, parasite or virus in culture; format: cell-based; conditions: Pyricularia oryzae, read-out: antimicrobial activity, inhibition of Magnaporthe grisea
[2] = system: Botrytis cinerea AARF-033; experiment: Antimicrobial activity test against rice Botrytis cinerea (conidia, 96 well microplate); format: cell-based; conditions: AARF033, 96 h, conidia 1×10^4 conidia/ml in potato-glucose broth, 25° C. for 4 days
Text: Test specimen (compound (A2-1) and compound (A5-1)) and reference agents i.e. iprodione and captan, were, respectively, dissolved in dimethyl sulfoxide (DMSO) and adjusted to 10,000 ppm. To a flat bottom 96 well microplate, 2 μ/ml of each test solution was dispensed, and then, 198 μ/ml of conidia of rice Botrytis cinerea (Botrytis cinerea AARF-033) cultured on a potato-glucose agar medium, and suspended in a potato-glucose broth and adjusted to 1×10^4 conidia/ml, were dispensed, followed by stirring by a micro mixer. At that time, the concentration of each test specimen and reference agent, was 100 ppm. Thereafter, culturing under standing-still condition was conducted at 25° C. for 4 days, whereby the antimicrobial activities were evaluated.

Row | SMILES | inhibition at 100 ppm [1] | inhibition at 100 ppm [2]
1 | CCCCNC(=O)n1c(NC(=O)OC)nc2ccccc21 [Benomyl, benomyl] | ≥ 95% | 
2 | O=C1C2CC=CCC2C(=O)N1SC(Cl)(Cl)Cl (centres unmarked) [Captan, captan] |  | ≥ 95%
3 | CCOC(=O)c1cnc(-c2ccccc2)nc1C(F)(OC(F)(F)C(F)(F)C(F)(F)F)C(F)(F)F (centres unmarked) [Compound A2-1] | ≥ 95% | ≥ 95%
4 | Nc1cnc(-c2ccccc2)nc1C(F)(F)OC(F)(F)C(F)(F)OC(F)(F)C(F)(F)F [Compound A5-1] | ≥ 95% | ≥ 95%
5 | CO/N=C(/C1=NOCCO1)c1ccccc1Oc1ncnc(Oc2ccccc2Cl)c1F [Fluoxastrobin, fluoxastrobin] | ≥ 95% | 
6 | CC(C)NC(=O)N1CC(=O)N(c2cc(Cl)cc(Cl)c2)C1=O [Iprodione, iprodione] |  | ≥ 95%
